Series [1] deals with rat. As to conditions: Subchronic oral toxicity in rodents, sprague dawley, Feed, dose end: 13 week, group: systemic.
For a further series, the system named is dog. The conditions noted are these: Subchronic oral toxicity in nonrodent, beagle, Feed, dose end: 90 day, group: systemic.
The test system of series [2] is rat. The conditions noted are these: Prenatal developmental toxicity study, sprague dawley, Oral, Gavage/Intubation, dose end: 16 GD.
In series [3] the test system is rat. The conditions noted are these: Subchronic oral toxicity in rodents, sprague dawley, Gavage/Intubation, dose end: 92 day, group: systemic, systemic / pathology microscopic / stomach / thickened.
For series [4], the system named is rat. The conditions noted are these: Subchronic oral toxicity in rodents, sprague dawley, Gavage/Intubation, dose end: 90 day, group: systemic, systemic / pathology microscopic / stomach / hyperkeratosis + systemic / pathology microscopic / stomach / hyperplasia.
The test system of series [5] is primate. The conditions noted are these: Sub-acute repeat dose toxicity, Oral, Gavage/Intubation, dose end: 7 day, group: systemic.
The subject of series [6] is primate. As to conditions: Sub-acute repeat dose toxicity, Oral, Gavage/Intubation, dose end: 14 day, group: systemic.
For series [7], the system named is rat. The conditions noted are these: Sub-acute repeat dose toxicity, Oral, Gavage/Intubation, dose end: 7 day, group: systemic.
Series [8] deals with rat. The conditions noted are these: Sub-acute repeat dose toxicity, sprague dawley, Oral, Gavage/Intubation, dose end: 14 day, group: systemic.
The test system of series [9] is rat. The conditions noted are these: Prenatal developmental toxicity study; sprague dawley; Oral; Gavage/Intubation; dose end: 15 GD; group: maternal; systemic / in life observation / clinical signs / post-dosing rooting in bedding + systemic / in life observation / food consumption / food ….
Series [10] relates to rat. As to conditions: Prenatal developmental toxicity study, sprague dawley, Oral, Gavage/Intubation, dose end: 15 GD.
Series [11] deals with rat. The conditions noted are these: Multigenerational reproductive toxicity study, wistar, Oral, Feed, dose end: 2 generation.
For series [12], the system named is rat. The conditions noted are these: Multigenerational reproductive toxicity study, wistar, Oral, Feed, dose end: 2 generation. The source holds these as a separate data set.
The subject of series [13] is rat. As to conditions: Developmental neurotoxicity study; sprague dawley; Oral; Gavage/Intubation; dose end: 125 PND; group: cannot be grouped; systemic / in life observation / body weight / offspring (pup) weight + systemic / in life observation / body weight / offspring (pup) ….
[14] abbreviates: systemic / in life observation / body weight / body weight.
Setting [15] is: systemic / in life observation / body weight / body weight + systemic / in life observation / food consumption / food efficiency + systemic….
Setting [16] is: systemic / in life observation / body weight / body weight + systemic / in life observation / food consumption / food consumption + systemic….
Setting [17] is: group: developmental, developmental / developmental malformation / bone / incomplete ossification + developmental / developmental malformation / bone / unossified….
Setting [18] is: group: maternal, systemic / in life observation / body weight / body weight gain + systemic / in life observation / food consumption / food consumption + ….
Where [19] appears, read: systemic / clinical chemistry / phosphorus / phosphorus + systemic / clinical chemistry / sodium / sodium + systemic / clinical chemistry / ….
Where [20] appears, read: systemic / pathology microscopic / vagina / prolapse + systemic / in life observation / clinical signs / vomitting + systemic / in life ….
The mark [21] stands for this setting: systemic / in life observation / body weight / body weight + systemic / clinical chemistry / chloride / chloride + systemic / clinical ….
Where [22] appears, read: systemic / in life observation / mortality / mortality + systemic / pathology microscopic / stomach / degeneration + systemic / clinical ….
Setting [23] is: systemic / clinical chemistry / albumin / albumin + systemic / clinical chemistry / globulins / globulins + systemic / pathology microscopic….
Setting [24] is: group: developmental, developmental / developmental malformation / bone / [other].
Where [25] appears, read: group: maternal, systemic / in life observation / body weight / body weight + systemic / in life observation / clinical signs / [other] + systemic / in life ….
The mark [26] stands for this setting: group: offspring, developmental / developmental landmark / anogenital distance (agd) / anogenital distance (agd) + developmental / developmental landmark / ….
Where [27] appears, read: group: parental, systemic / in life observation / body weight / body weight gain + systemic / in life observation / body weight / body weight + systemic / ….
The mark [28] stands for this setting: group: reproductive, reproductive / offspring survival early / birth index / live birth index + reproductive / reproductive performance / estrous cycle / ….
Setting [29] is: group: offspring, systemic / in life observation / body weight / offspring (pup) weight.
Where [30] appears, read: group: parental, systemic / organ weight / epididymis / absolute + systemic / organ weight / testes / absolute.

A value given as a limit tells only on which side of the number the result lay.

Results on four compounds are retold here after EPA's ToxRefDB 2.

On to `O=c1[nH]sc2ccccc12` [1,2-Benzisothiazolin-3-one], for which the LEL was found to be 69 mg/kg/day with rat [1] (setting [14]); 89 mg/kg/day in the series on dog (setting [16]); 40 mg/kg/day in the series with rat [2] (group: developmental, developmental / developmental malformation / bone / unossified); 40 mg/kg/day in the series with rat [2] (group: maternal, systemic / in life observation / clinical signs / abnormal respiratory sounds); 10 mg/kg/day with rat [3]; 10 mg/kg/day in the series with rat [4]. In addition, the lowest observed adverse effect level (LOAEL) (usually the lowest dose or exposure tested at which an adverse effect was seen) in the series with rat [1] (setting [14]) is 69 mg/kg/day; in the series on dog (systemic / in life observation / body weight / body weight + systemic / in life observation / food consumption / food consumption), 89 mg/kg/day; in the series on rat [2] (setting [17]) it was 100 mg/kg/day; in the series with rat [2] (group: maternal, systemic / in life observation / body weight / body weight gain + systemic / in life observation / food consumption / food consumption), 100 mg/kg/day; in the series with rat [3], 10 mg/kg/day; in the series with rat [4], more than 10 mg/kg/day. In addition, the NEL with rat [1] (setting [15]) was 15.3 mg/kg/day; in the series on dog (setting [16]), 38 mg/kg/day; in the series with rat [2] (setting [17]), 10 mg/kg/day; in the series with rat [2] (setting [18]), 10 mg/kg/day; with rat [3], less than 10 mg/kg/day. The no-observed-adverse-effect level (NOAEL) (in general, the highest dose or exposure tested at which no adverse effect was seen) in the series on rat [1] (setting [15]) was 15.3 mg/kg/day; with dog (setting [16]), 38 mg/kg/day; in the series with rat [2] (setting [17]) it was 40 mg/kg/day; with rat [2] (setting [18]), 40 mg/kg/day; with rat [3], less than 10 mg/kg/day; in the series on rat [4] it was not below 10 mg/kg/day.
On to `CCn1nc(C)c2c1C(=O)NCC(c1ccc(O)cc1)=N2`, for which the LOAEL with primate [5] (setting [19]) is more than 50 mg/kg/day; in the series on primate [6] (setting [21]) it was more than 20 mg/kg/day; in the series on rat [7] (setting [22]), more than 300 mg/kg/day; in the series on rat [8] (setting [23]), more than 80 mg/kg/day. Besides, the no observed adverse effect level (NOAEL) with primate [5] (setting [19]) is not below 50 mg/kg/day; in the series on primate [6] (setting [21]), not below 20 mg/kg/day; with rat [7] (setting [22]) it was not below 300 mg/kg/day; in the series with rat [8] (setting [23]), not below 80 mg/kg/day. Besides, the LEL amounted to 10 mg/kg/day with primate [5] (setting [20]), 5 mg/kg/day in the series with primate [6] (setting [14]), 80 mg/kg/day in the series with rat [7] (systemic / pathology microscopic / heart / fibrosis + systemic / pathology microscopic / heart / hemorrhage + systemic / pathology …) and 40 mg/kg/day in the series on rat [8] (systemic / organ weight / testes / absolute + systemic / pathology microscopic / heart / necrosis + systemic / pathology microscopic / …). The NEL was less than 10 mg/kg/day in the series with primate [5] (setting [20]), less than 5 mg/kg/day in the series with primate [6] (setting [14]) and 20 mg/kg/day in the series on rat [8] (systemic / organ weight / testes / absolute + systemic / pathology microscopic / blood vessel / inflammation + systemic / pathology …).
For `CSc1nc(NC2CC2)nc(NC(C)(C)C)n1` [Cybutryne], the LEL in the series with rat [9] turned out to be 150 mg/kg/day; in the series on rat [10] (setting [24]) it was 300 mg/kg/day; in the series on rat [10] (group: maternal, systemic / in life observation / body weight / body weight + systemic / in life observation / clinical signs / [other]) it was 150 mg/kg/day. Further, the lowest-observed-adverse-effect level (LOAEL) in the series with rat [9] is 150 mg/kg/day; in the series with rat [10] (setting [24]), more than 300 mg/kg/day; with rat [10] (group: maternal, systemic / in life observation / body weight / body weight + systemic / in life observation / body weight / body weight gain), 300 mg/kg/day. Further, the NEL with rat [9] is 50 mg/kg/day; in the series with rat [10] (setting [24]), 150 mg/kg/day; with rat [10] (setting [25]), 50 mg/kg/day. The no-observed-adverse-effect level (NOAEL) is 50 mg/kg/day in the series with rat [9], not below 300 mg/kg/day in the series on rat [10] (setting [24]) and 150 mg/kg/day in the series with rat [10] (setting [25]).
In the case of `CCC[CH2][Sn]([Cl])([CH2]CCC)[CH2]CCC` [Tributyltin chloride], the LEL in the series with rat [11] (group: offspring, developmental / developmental landmark / anogenital distance (agd) / anogenital distance (agd)) is 1.25 mg/kg/day; in the series with rat [11] (setting [27]) it was 6.25 mg/kg/day; in the series on rat [11] (setting [28]), 6.25 mg/kg/day; with rat [12] (setting [29]), 0.25 mg/kg/day; with rat [12] (setting [30]), 0.25 mg/kg/day; with rat [13], 5 mg/kg/day. For the same compound, the lowest observed adverse effect level (LOAEL) with rat [11] (setting [26]) is more than 6.25 mg/kg/day; with rat [11] (setting [27]), more than 6.25 mg/kg/day; in the series on rat [11] (setting [28]), more than 6.25 mg/kg/day; in the series with rat [12] (setting [29]) it was 0.25 mg/kg/day; with rat [12] (setting [30]), 0.25 mg/kg/day; in the series with rat [13], more than 5 mg/kg/day. Moreover, the NEL with rat [11] (setting [26]) is 0.25 mg/kg/day; in the series on rat [11] (group: parental, systemic / in life observation / body weight / body weight gain), 1.25 mg/kg/day; in the series on rat [11] (setting [28]), 1.25 mg/kg/day; in the series on rat [12] (setting [29]), less than 0.25 mg/kg/day; with rat [12] (setting [30]) it was less than 0.25 mg/kg/day; with rat [13], 1 mg/kg/day. The NOAEL in the series on rat [11] (setting [26]) is not below 6.25 mg/kg/day; in the series on rat [11] (setting [27]), not below 6.25 mg/kg/day; in the series on rat [11] (setting [28]) it was not below 6.25 mg/kg/day; in the series with rat [12] (setting [29]), less than 0.25 mg/kg/day; in the series with rat [12] (setting [30]) it was less than 0.25 mg/kg/day; in the series on rat [13], not below 5 mg/kg/day.
